According to PubChem BioAssay (NCI):
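Where inhibition never reached the appropriate level, the endpoint shown equals the highest concentration tested. Otherwise, values were interpolated linearly from a five-concentration, 48-hour dose response in 96-well plates. TGI marks complete inhibition of growth.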

Legend:
Test in all cases: NCI anticancer screen, dose series, 48 h
MOLT-4 leukemia = test system: MOLT-4 leukemia
SF-268 CNS = test system: SF-268 CNS
UACC-257 melanoma = test system: UACC-257 melanoma
A498 renal = test system: A498 renal
LOX IMVI melanoma = test system: LOX IMVI melanoma
CAKI-1 renal = test system: CAKI-1 renal
KM12 colon = test system: KM12 colon
786-0 renal = test system: 786-0 renal
IGROV1 ovarian = test system: IGROV1 ovarian
NCI-H23 lung = test system: NCI-H23 lung

Compound | TGI (MOLT-4 leukemia) [µM] | TGI (SF-268 CNS) [µM] | TGI (UACC-257 melanoma) [µM] | TGI (A498 renal) [µM] | TGI (LOX IMVI melanoma) [µM] | TGI (CAKI-1 renal) [µM] | TGI (KM12 colon) [µM] | TGI (786-0 renal) [µM] | TGI (IGROV1 ovarian) [µM] | TGI (NCI-H23 lung) [µM]
O[C@H]1[C@@H]2OC[C@@H](O)[C@H](OCc3ccccc3)[C@@](COCc3ccccc3)(O2)[C@@H]1OCc1ccccc1 | > 100 | 42.8 | 28.7 | 31.4 | 32.7 | 0.0898 | 35.6 | 45.4 | 27.5 | 32.3
NC(=O)N=Nc1c2ccccc2n2[nH]ccc12 | > 100 | > 100 | > 100 | > 100 | > 100 | > 100 | > 100 | > 100 | > 100 | > 100
Nc1ccc2c(c1)S(=O)(=O)c1cc(N)ccc1-2 | > 100 | > 100 | > 100 | > 100 | > 100 | > 100 | > 100 | > 100 | > 100 | > 100
CCOC(=O)C(C(=O)OCC)C(NC(=O)Nc1cc(C(F)(F)F)ccc1OC)(C(F)(F)F)C(F)(F)F | 68.6 | > 100 | 94.1 | 31.9 | > 100 | 91.5 | 66.1 | 55.8 | 96.9 | 85.6
O=C(CSCC(=O)N/N=C/c1ccncc1)N/N=C/c1ccncc1 | > 100 | > 100 | > 100 | > 100 | > 100 | > 100 | > 100 | > 100 | > 100 | > 100
CC(=O)Nc1ccc2c3c(cc(O)c2c1)N(C(=O)CCCCCC(=O)Nc1ccc2c4c(cc(O)c2c1)N(C(=O)OC(C)(C)C)CC4CCl)CC3CCl (stereo not given) | > 32.6 | 6.87 | > 28.6 | 5.31 | 18.2 | > 100 | 13.6 | 10.1 | 28.5 | 3.59
CC(=O)Oc1cc2c(n(C)c1=O)CCC2 | > 100 | > 100 | > 100 | > 100 | > 100 | > 100 | > 100 | > 100 | > 100 | > 100
O=c1ccc2nc3ccc(O)cc3oc-2c1 | > 100 | > 100 | 26.4 | > 100 | 7.86 | > 100 | > 62.7 | > 79.6 | > 100 | 14.3
Nc1c(O)c(C(=O)O)cc2ccccc12 | 83.8 | > 100 | 38.4 | > 100 | 22.5 | 53.8 | > 100 | 36.4 | > 100 | 65.3
C1COCCOP2(N3CC3)=NP(N3CC3)(=NP(N3CC3)(N3CC3)=N2)OCCOCCO1 (stereo not given) | > 100 | > 100 | > 100 | > 100 | > 100 | > 100 | > 100 | > 100 | > 100 | > 100
Cc1cc(C)nc(NS(=O)(=O)c2ccc(NC(=O)c3ccc4nc5ccccc5c(Nc5ccc(S(=O)(=O)Nc6nc(C)cc(C)n6)cc5)c4c3)cc2)n1 | 78.1 | > 100 | > 100 | > 100 | 43.4 | > 100 | > 100 | > 100 | > 100 | > 100
Cc1c(C=C(C#N)C#N)c(=O)n(C)c(=O)n1C | > 100 | > 100 | > 100 | > 100 | > 100 | > 100 | > 100 | > 100 | > 100 | > 100
Cn1c2c(c3c(=O)[nH]ncc31)CCCc1ccccc1-2 | 21.6 | 98.8 | > 100 | 57.3 | 46.1 | 69.9 | > 100 | > 100 | 61.6 | > 100
C/C(CC(O)(C(F)(F)F)C(F)(F)F)=N/Nc1ccc([N+](=O)[O-])cc1[N+](=O)[O-] | > 10 | > 10 | > 10 | 8.37 | > 10 | > 10 | > 10 | > 10 | > 10 | 7.27
COC(=O)c1ccccc1Nc1ccccc1C(=O)OC | > 100 | > 100 | > 100 | > 100 | > 100 | > 100 | > 100 | > 100 | > 100 | > 100
CCO/N=C(/CC)c1ccc(Br)s1 | > 100 | > 100 | > 100 | > 100 | > 100 | > 100 | > 100 | > 100 | > 100 | > 100
Nc1nc2c(ncn2CC(CO)CC(c2ccccc2)P(=O)(O)O)c(=O)[nH]1 (stereo not given) | > 100 | > 100 | > 100 | > 100 | > 100 | > 100 | > 100 | > 100 | > 100 | > 100
Cc1ccc(S(=O)(=O)N/N=C2\CC3C4CCC3C2C4)cc1 (stereo not given) | > 100 | > 100 | > 100 | > 100 | > 100 | > 100 | > 100 | > 100 | > 100 | > 100
NC1=CN(Cc2ccccc2)C2=N/C(=C\c3ccco3)C(=O)N12 | > 100 | > 100 | > 100 | > 100 | > 100 | > 100 | > 100 | > 100 | > 100 | > 100

Compound | TGI (MOLT-4 leukemia) [µM] | TGI (SF-268 CNS) [µM] | TGI (UACC-257 melanoma) [µM] | TGI (A498 renal) [µM] | TGI (LOX IMVI melanoma) [µM] | TGI (CAKI-1 renal) [µM] | TGI (KM12 colon) [µM] | TGI (786-0 renal) [µM] | TGI (IGROV1 ovarian) [µM] | TGI (NCI-H23 lung) [µM]
N#C/C=C\c1ccc(-c2cc(C(F)(F)F)cc(C(F)(F)F)c2)o1 | > 100 | 69.7 | > 100 | 61.3 | > 100 | > 100 | > 100 | 70.5 | > 100 | 30.1
NNC(=O)CSc1nnc(CCCCCCCCc2nnc(SCC(=O)NN)o2)o1 | > 100 | > 100 | > 100 | > 100 | > 100 | > 100 | > 100 | > 100 | > 100 | > 100
NC(=O)N/N=C/c1ccccc1O | > 100 | > 100 | > 100 | > 100 | > 100 | > 100 | > 100 | > 100 | > 100 | > 100
Cc1cccc2c(=O)c3c(O)cc4c(c3n(C)c12)C=CC(C)(C)O4 | > 100 | > 100 | > 100 | > 100 | > 100 | > 100 | > 100 | > 100 | > 100 | > 100
C=[N+](CNC(=O)CNC(=O)C(Cc1ccccc1)NC(=O)OC(C)(C)C)C(=O)CNC(=O)C(Cc1ccccc1)NC(=O)OC(C)(C)C (stereo not given) | > 100 | > 100 | > 100 | > 100 | > 100 | > 100 | > 100 | > 100 | > 100 | > 100
COc1cc(C2S/C(=C/c3ccccc3)C(=O)N2c2ccccn2)cc(OC)c1OC (stereo not given) | > 100 | 36.2 | > 100 | 33.4 | 26.9 | 52.3 | 29.4 | 31.4 | 29.9 | 34
NCCSc1nc(N)c2ncn(C3OC(CO)C(O)C3O)c2n1 (stereo not given) | > 100 | > 100 | > 100 | > 100 | > 100 | > 100 | > 100 | > 100 | > 100 | > 100
COc1cc2c3c4c1OCc1c5c(cc(c1-4)CC3[N+](C)(C)CC2)OCO5 (stereo not given) | > 100 | 16.9 | > 100 | > 100 | > 100 | > 100 | > 100 | > 63.5 | > 100 | > 100
CCCCn1c2c(n(CCCC)c1=[Se])-c1c(n(CCCC)c(=[Se])n1CCCC)S[Se][Se]S2 | > 90.6 | > 100 | > 100 | > 100 | 30.1 | 17.7 | > 59.3 | > 72.6 | 18.5 | 70.4
O=c1[nH]c(Br)nc2c(N3CCCCC3)c[nH]c12 | > 100 | > 100 | > 100 | > 100 | > 100 | > 100 | > 100 | > 100 | > 100 | > 100
C#CC1(O)CC(c2ccccc2)N(C)C(c2ccccc2)C1 (stereo not given) | > 100 | > 100 | > 100 | > 100 | > 100 | > 100 | > 100 | > 100 | > 100 | > 100
Cc1ccc(C)c(C(=N)c2ccccc2Cc2ccccc2)c1 | 38.2 | 46.2 | 73.1 | 53.9 | 31.7 | > 100 | 56.5 | 32.2 | > 100 | > 100
O=c1[nH]c(=S)c2[nH]c(=O)n(-c3ccccc3)c2[nH]1 | > 100 | > 100 | > 100 | > 100 | > 100 | > 100 | > 100 | > 100 | > 100 | > 100
CC1(C)N=C(N)N=C(N)N1CCCCc1ccccc1 | > 91.6 | > 100 | > 75.9 | > 100 | > 100 | > 100 | > 100 | > 100 | > 100 | > 100
COc1ccccc1NC1=NCC(C)S1 (stereo not given) | > 100 | > 100 | > 100 | > 100 | > 100 | > 100 | > 100 | > 100 | > 100 | > 100
COc1cc(OC)cc(Oc2nc3c(N)cc(C(F)(F)F)cc3nc2-c2ccccc2)c1 | 81.1 | > 100 | > 100 | > 100 | 45.9 | > 100 | 50.3 | > 100 | > 100 | > 100
Cc1ccc(C(=O)C(C)N)cc1C (stereo not given) | > 100 | > 100 | > 100 | > 100 | > 100 | > 100 | > 100 | > 100 | > 100 | > 100
CC(C)C(=O)CP(=O)(O)O | > 100 | > 100 | > 100 | > 100 | > 100 | > 100 | > 100 | > 100 | > 100 | > 100
O=Cc1ccc2[nH]c(=O)oc2c1 | > 100 | > 100 | > 100 | > 100 | > 100 | > 100 | > 100 | > 100 | > 100 | > 100
